Patent US12240854B2, “TRAF 6 inhibitors” (Helmholtz Zentrum München - Deutsches Forschungszentrum für …, priority 2018, dated 2025)
“Also recorded” adds a separate entry of the source.

Key:
[1] = molecular target: T1, Interaction of Ubc13 with Uev1a (Homo sapiens, UniProt P61088+Q13404); test: Ubc13-Uev1a interaction (FIG. 2E); type: binding
T1 construct: GST (N); His; made in house

[2] = system: IMQ-induced psoriasis in Balb/C mice; test: Imiquimod (IMQ)-induced psoriasis mouse model; type: in vivo
Experimental: To evaluate the anti-inflammatory activity of the compound C25-140 (compound 3), an Imiquimod (IMQ)-induced psoriasis mouse model was conducted by Washington Biotechnology, Inc. (Baltimore, USA). Per group, 8 male Balb/C mice were shaved in the back (1.5 cm×2 cm) and IMQ and C25-140 were applied topically to the shaved back and the right ear daily for 6 days. Thereby, C25-140 was dissolved in acetone and applied at a total dosage of 500 μg per day (2×250 μg). Mice were monitored and daily scores (erythema, scaling and thickness of back skin) were independently collected on a scale from 0 to 4: 0=none; 1=slight; 2=moderate; 3=marked and 4=very marked. Ear thickness was measured by electronic calipers as an indicator of edema. IL-17 cytokine secretion of the right ear tissue was measured by ELISA.

[3] = ADME: microsomal stability; type: in vitro ADME
Experimental: (§1) All ADME (plasma stability, plasma protein binding, microsomal stability, Log D, Caco-2 assay, CYP450 inhibition and hERG predictor assay) as well as pharmacokinetic studies (Tmax, Cmax, AUC0-240min, Mean Residence Time, Elimination half life, Elimination rate constant, Volume of Distribution and Clearance) of C25-140 (compound 3) were conducted by Bienta Enamine Biology Services of Bienta/Enamine Ltd.

[4] = system: TRAF6 auto-ubiquitination in Jurkat T-cells; test: Immunoprecipitation of TRAF6 for endogenous ubiquitination, Jurkat T-cells; type: cell-based, human; conditions: PMA/Ionomycin
[5] = system: Collagen-Induced Arthritis (CIA) Model in DBA1/J mice; test: Collagen-Induced Arthritis (CIA) model; type: in vivo, mouse
Experimental: In order to test the potential of C25-140 to ameliorate RA symptoms, a Collagen-Induced Arthritis (CIA) Model in DBA1/J mice was performed by Washington Biotechnology, Inc. (Baltimore, USA). Each group of ten mice was subjected to a single subcutaneous injection of collagen/complete Freund's Adjuvant emulsion (0.05 ml/mouse; 100 μg collagen/CFA). After 20 days (day 21), mice were booster injected with collagen (0.05 ml/mouse; 100 μg/mouse collagen in Incomplete Freund's Adjuvant). On day 28, mice were scored for their Arthritic Index (AI) and 14 days intraperitoneally dosed twice daily with 6 mg/kg, 10 mg/kg and 14 mg/kg C25-140, respectively. Mice were scored of macroscopic signs of arthritis daily. Thereby, the following scoring index was applied to each individual paw: 0=no visible effects of arthritis; 1=edema and/or erythema of 1 digit; 2=edema and/or erythema of 2 digits; 3=edema and/or erythema of more than 2 digits; 4=severe arthritis of entire paw and digits. Single paw scores were added and recorded. On day 42, animals were euthanized, limbs were collected and histopathology was performed using Toluidine blue staining with scoring of several parameters.

cIAP1 = molecular target: T2, cIAP1 (Homo sapiens, UniProt Q13490); test: In vitro ubiquitination assay, cIAP1 ubiquitin ligase kit; type: biochemical; conditions: K63 chain formation
T2 construct: purchased Boston Biochem
T2 sequence (Q13490 whole entry): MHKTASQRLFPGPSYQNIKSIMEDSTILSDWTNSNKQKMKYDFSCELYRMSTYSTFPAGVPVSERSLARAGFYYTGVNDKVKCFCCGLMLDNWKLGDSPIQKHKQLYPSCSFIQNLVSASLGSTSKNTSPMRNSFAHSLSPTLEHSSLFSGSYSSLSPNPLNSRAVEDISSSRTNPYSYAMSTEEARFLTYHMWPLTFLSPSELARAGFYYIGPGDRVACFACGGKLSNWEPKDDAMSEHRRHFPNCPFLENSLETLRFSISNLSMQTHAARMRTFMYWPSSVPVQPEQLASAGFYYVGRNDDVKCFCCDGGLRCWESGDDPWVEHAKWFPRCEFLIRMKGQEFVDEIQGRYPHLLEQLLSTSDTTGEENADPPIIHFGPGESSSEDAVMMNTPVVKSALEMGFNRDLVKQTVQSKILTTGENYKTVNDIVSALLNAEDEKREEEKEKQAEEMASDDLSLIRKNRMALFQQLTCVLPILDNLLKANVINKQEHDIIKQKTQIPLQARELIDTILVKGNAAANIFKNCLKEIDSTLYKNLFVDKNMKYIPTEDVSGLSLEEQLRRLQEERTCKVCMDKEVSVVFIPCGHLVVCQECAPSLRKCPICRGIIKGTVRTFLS
Experimental: For analysis of cIAP1, MDM2, TRIM63, RNF4, ITCH and E6AP mediated poly-ubiquitination, the respective ubiquitin ligase kit from Boston Biochem (K-102, K-260, K-200B, K-220, K-240 and K-270) was used. Here, reaction buffer, E1, E2 and E3 enzyme (and p53 substrate in case of MDM2) were mixed and pre-incubated with compound or DMSO for 5 minutes at room temperature before adding Mg^2+-ATP and mono-ubiquitin for reaction start. Ubiquitination was visualized by Western Blot analyses.

[6] = ADME: plasma protein binding; type: in vitro ADME
Experimental: as §1

80 cancer cell lines = test: Omniscreen cancer cell line panel, CellTiter-Glo; type: cell-based; conditions: 9 dose levels from 80 μM, 72 hours
Experimental: The effect of C25-140 on cell viability of 80 cancer cell lines using the CellTiter-Glo luminescent cell viability assay was conducted at CrownBioscience Inc. at the testing facility in Beijing. Here, 80 selected cell lines were cultured in media supplemented with 10-15% FBS, in the temperature of 37° C., 5% CO2 and 95% humidity. Culture medium was purchased from GIBCO or Sigma, USA. The cells were treated with C25-140 in 9 dose levels starting at 80 μM with 3.16-fold serial dilutions. Cisplatin served as a reference control and started with a top working concentration of 100 μM. Test samples were incubated for 72 hours and cell viability was measured by the CellTiter-Glo assay.

[7] = system: HBL1 (ABC-DLBCL-MYD88 L265P); test: Cell viability in DLBCL, HBL1; type: cell-based; conditions: HBL1, 30 μM, added at day 0, 4 and 8, 9 days
Experimental: (§2) To determine the effects of C25-140 on MYD88-dependent ABC-DLBCL, we chose the HBL1 (ABC-DLBCL-MYD88 L265P), U2932 (ABC DLBCL-MYD88 wt) and BJAB (GCB DLBCL) cell lines. 1×10^6 cells of each cell line was seeded in 5 ml and treated with 30 μM compound C25-140 (compound 3) or DMSO. The entire experiment was carried out for 9 days. Every day 500 μl were taken and viable cell number was acquired using the ViCEII cell counter (Beckmann Coulter). At days 4 and 8 of the experiment the volume was again adjusted to 5 ml and samples were supplemented with 30 μM compound C25-140 or DMSO. This process was necessary to ensure linear proliferation of DMSO treated cells. All curves of C25-140 treated samples were referred to the corresponding DMSO treated controls.

[8] = system: U2932 (ABC DLBCL-MYD88 wt); test: Cell viability in DLBCL, U2932; type: cell-based; conditions: U2932, 30 μM, 9 days
Experimental: as §2

[9] = system: 24 different Ubiquitin reaction cascades (E2, E3 and substrate combinations); test: Ubiquitin Profiler (Eurofins), single point; type: biochemical; conditions: 30 μM, 24 reactions
Experimental: C25-140 was sent to Eurofins Pharma Discovery Services UK to perform a Single Point Ubiquitin Profiler testing of C25-140 effect at a concentration of 30 μM on 24 different Ubiquitin reaction cascades employing distinct combinations of E2, E3 and substrate. Each reaction was measured in duplicates. Cascade activity is expressed as a percentage of the mean cascade activity in the positive control samples. The positive control value is considered to be 100%, and all test samples are referred to this value.

[10] = topical, 2x250 μg per day, 6 days
[11] = topical, 2x250 μg per day, 6 days, listed as 25-140

T1 sequence (P61088 with tags, fused parts or gaps): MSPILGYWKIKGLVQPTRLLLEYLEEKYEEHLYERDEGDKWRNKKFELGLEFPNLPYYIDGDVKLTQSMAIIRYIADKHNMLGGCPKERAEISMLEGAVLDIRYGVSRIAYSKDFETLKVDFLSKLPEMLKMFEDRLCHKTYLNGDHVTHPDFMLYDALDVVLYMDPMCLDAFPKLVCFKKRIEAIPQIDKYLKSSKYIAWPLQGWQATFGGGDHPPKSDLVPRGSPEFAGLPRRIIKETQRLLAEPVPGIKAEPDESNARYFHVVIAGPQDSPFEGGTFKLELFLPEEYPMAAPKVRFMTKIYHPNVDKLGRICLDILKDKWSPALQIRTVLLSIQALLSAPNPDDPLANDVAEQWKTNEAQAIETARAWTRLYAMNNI
T1 sequence (Q13404 with tags, fused parts or gaps isoform Q13404-7): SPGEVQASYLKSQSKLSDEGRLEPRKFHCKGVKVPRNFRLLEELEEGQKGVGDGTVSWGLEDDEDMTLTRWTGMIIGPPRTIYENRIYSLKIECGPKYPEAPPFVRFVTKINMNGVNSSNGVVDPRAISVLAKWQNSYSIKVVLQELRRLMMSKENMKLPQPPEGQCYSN

Cc1nn(-c2ccc3nnc(C)n3n2)c(C)c1CCC(=O)N1CCC(Cc2ccccc2)CC1 [Example C25-140, 1-(4-Benzylpiperidin-1-yl)-3-(3,5-dimethyl-1-(3-methyl-[1,2,4]-triazolo-[4,3-b]-pyridazin-6-yl)-1H-pyrazol-4-yl)-propan-1-one]
interaction of Ubc13 with Uev1a [1]: did not affect binding; also recorded: not affected | psoriasis symptoms / disease outcome (in words) ([2]; IMQ-induced psoriasis): ameliorates disease outcomes; also recorded: ameliorates symptoms | IL-17 cytokine in right ear tissue ([2]; day 6, ELISA): significantly reduced; also recorded: decreased | cumulative score [2, 10]: reduces | ear thickness [2, 10]: significantly reduced | erythema score of the back [2, 10]: improvement of the disease symptoms | scaling score [2, 10]: improvement of the disease symptoms | thickness score of the back [2, 10]: significantly reduce | cumulative score [2, 11]: significantly reduce | ear thickness [2, 11]: improvement of the disease symptoms | microsomal stability [3]: stable | TRAF6 auto-ubiquitination upon TCR stimulation [4]: dose-dependently diminished; also recorded: dose-dependently reduced | arthritic index (AI) ([5]; 6, 10 and 14 mg/kg IP twice daily, 14 days): dose-dependently reduced | RA symptoms / disease outcome (in words) ([5]; CIA mouse model): ameliorates RA disease outcomes; also recorded: successfully counteracted clinical symptoms of RA and reversed the disease state; also recorded: eases symptoms | histological score of the limbs (inflammation, pannus formation, cartilage damage, bone resorption) ([5]; day 42): dose-dependently improves RA symptoms; also recorded: attenuated | arthritic index (AI) ([5]; doses of 10 mg/kg and 14 mg/kg IP twice daily): almost completely ameliorated the arthritic index to baseline levels | body weight ([5]; throughout the study): did not show any signs of reduction; also recorded: do not show any signs of weight loss | auto-ubiquitination of cIAP1 (cIAP1): indeed affected; also recorded: dose-dependently diminished | plasma protein binding [6]: decent good plasma protein binding capacity | viability of control cell lines HS-5 and MCF 10A (80 cancer cell lines): not affected at all | viability of cancer cell lines (80 cancer cell lines; 78 cancer cell lines): major effect is on cancer cells of blood origin; also recorded: Various cancer cell lines died; also recorded: Major effects were visible in cancer cells of blood origin | viability of MYD88-dependent ABC-DLBCL [7]: selectively kills ABC-DLBCL with chronic MYD88 signaling; also recorded: significantly reduced viability; also recorded: diminished | viability of MYD88 wildtype ABC DLBCL [8]: only slightly affected; also recorded: not affected | Ubiquitin Profiler cascade activity [9]: None of these reactions was inhibited; also recorded: None of the reactions is considerably inhibited
